The text below walks through data of patent US12461089B2, “Olfactory receptor involved in the perception of musk fragrance and the use thereof” (ChemoSensoryX Biosciences SA, priority 2017, dated 2025).

What all share (format): cell-based
For experiment [1], the target named is T1, OR5A2_variant 1 (Homo sapiens, UniProt Q8NGI9).
T1 construct: expressed in transfected cells; host or cells: HEK293T-RTP1A1/RTP2
T1 sequence (Q8NGI9 1-324): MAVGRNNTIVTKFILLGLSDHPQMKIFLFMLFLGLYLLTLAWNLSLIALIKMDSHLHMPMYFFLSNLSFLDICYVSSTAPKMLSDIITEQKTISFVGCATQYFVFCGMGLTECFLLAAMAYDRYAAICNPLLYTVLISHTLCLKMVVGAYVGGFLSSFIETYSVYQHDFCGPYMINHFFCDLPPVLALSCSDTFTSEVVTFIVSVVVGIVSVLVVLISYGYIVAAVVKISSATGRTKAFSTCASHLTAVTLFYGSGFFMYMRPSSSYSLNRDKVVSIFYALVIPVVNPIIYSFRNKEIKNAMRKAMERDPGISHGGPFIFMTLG
The experiment can be described thus: Luciferase reporter concentration-response analysis on OR5A2_variant 1. The conditions noted are these: for activation of OR5A2 (OR5A2_variant 1), concentration-response: CRE-luciferase, semi-logarithmic serial dilutions, empty vector pEFIBRHO as control. As for the experimental part: (§1) HEK293T-RTP1A1/RTP2 cells were maintained in minimal essential medium (EMEM, Lonza) containing 10% fetal bovine serum (M10). These cells were generated by transfecting HEK293T with an expression vector containing the sequences of the chaperone proteins RTP1A1 and RTP2 and a resistance gene to puromycin, using Lipofectamine 2000.
(§2) Odorant molecules were diluted at a concentration of 1 mole/liter (M) into dimethyl sulfoxide (DMSO) to generate stock solutions.
(§3) For concentration-response analysis, serial dilutions of the tested molecules were prepared from stock solutions in EMEM plated into 96-well plates.
(§4) For the initial deorphanisation screening and dose-response analysis, a Luciferase-based gene reporter assay (Promega, Leiden, The Nederlands) was used. Briefly, cells were platted on Poly-D-lysine-coated 96-well and transfected with a plasmid containing the CRE-luciferase and a plasmid containing the olfactory receptor. Sixteen hours after transfection, the culture medium was replaced by serum-free EMEM containing the tested compounds at a determined concentration. After four hours of incubation at 37° C. degree, cells were lysed and processed for luminescence measurement. Luminescene emission was recorded. Results were expressed as luciferase activity (Relative […] Unit (RLU)) or as percentage of the response induced by 10 μM of the adenylate cyclase activator Forskolin. An empty plasmid is used as negative control.
(§5) 35 musk compounds from the four structurally different chemical groups previously described were tested in concentration-response analyses (Table 2). In each experiment, an empty vector was used as negative control (pEFIBRHO). […] Full results including the calculated EC50 are given in Table 2; “non active” represent negative experiments, no activation after testing.
In general terms: A reporter such as luciferase makes a cellular process visible.

The next experiment concerns the target T2, OR11A1 (Homo sapiens, UniProt Q9GZK7).
T2 construct: expressed in transfected cells; host or cells: HEK293T-RTP1A1/RTP2
T2 sequence (Q9GZK7 1-315): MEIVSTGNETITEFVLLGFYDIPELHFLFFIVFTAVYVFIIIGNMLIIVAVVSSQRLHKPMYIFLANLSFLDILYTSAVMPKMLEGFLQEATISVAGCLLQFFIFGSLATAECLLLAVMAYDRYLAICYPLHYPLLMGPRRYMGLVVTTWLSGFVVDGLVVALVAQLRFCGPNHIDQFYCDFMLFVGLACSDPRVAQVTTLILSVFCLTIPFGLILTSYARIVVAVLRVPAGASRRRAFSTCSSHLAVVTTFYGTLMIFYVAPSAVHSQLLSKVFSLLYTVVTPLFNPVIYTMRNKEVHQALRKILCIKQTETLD
The experiment can be described thus: Luciferase reporter concentration-response analysis on OR11A1. The following applies: concentration-response analysis, luciferase reporter; values given as negative (log) numbers; Non Active = no activation after testing; read-out: calculated EC50, OR11A1 (converted). As for the experimental part:
as §1, §2, §3, §4, §5
These compounds were tested in concentration-response analysis in luciferase assays, as described previously. In each experiment, an empty vector was used as negative control (pEFIBRHO).

In another experiment the target is T3, OR5A2_variant 2 (Homo sapiens, UniProt Q8NGI9, P172L).
T3 construct: (P172L, OR5A2_variant 2); expressed in transfected cells; host or cells: HEK293T-RTP1A1/RTP2
T3 sequence (Q8NGI9 1-324 P172L): T1 sequence (Q8NGI9 1-324) with P172L
The experiment can be described thus: Luciferase reporter concentration-response analysis on haplotype OR5A2_variant 2 (P172L). The following applies: CRE-luciferase; empty vector pEFIBRHO as control. The protocol: as §1, §2, §3, §4
OR genes are highly variable, with many alleles resulting in differences in smell perception from person to person. These differences can be attributed to genetic variations like, for example, nucleotide polymorphisms. […] Amino acids alignment of the 2 haplotypes are represented in FIG. 4.
To test if the substitution could impact the musk sensitivity, luciferase assays were performed as described previously after transfection of both OR5A2 variants. Cells were treated with semi-logarithmic serial dilutions of musk compounds from the four structurally different groups described earlier. In each experiment, an empty vector was used as negative control (pEFIBRHO).

Another experiment addresses T4, chimeric OR5A2_variant 1 (Homo sapiens, UniProt Q8NGI9, F293L/H55R/I289L/M58T).
T4 construct: expressed in transfected cells; host or cells: HEK293T-RTP1A1/RTP2
T4 sequence (Q8NGI9 with tags, fused parts or gaps H55R/M58T/I289L/F293L): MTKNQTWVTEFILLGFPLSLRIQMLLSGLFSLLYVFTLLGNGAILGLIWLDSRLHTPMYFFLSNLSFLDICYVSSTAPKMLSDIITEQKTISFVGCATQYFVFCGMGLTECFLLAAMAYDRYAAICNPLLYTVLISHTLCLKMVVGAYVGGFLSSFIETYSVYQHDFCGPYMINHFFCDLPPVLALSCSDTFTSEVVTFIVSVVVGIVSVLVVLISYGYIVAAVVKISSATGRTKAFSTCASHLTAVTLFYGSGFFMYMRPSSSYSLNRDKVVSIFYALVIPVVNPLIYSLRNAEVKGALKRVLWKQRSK
Briefly: Luciferase reporter concentration-response analysis on chimeric OR5A2_variant 1. The following applies: CRE-luciferase; empty vector pEFIBRHO as control. As for the experimental part: as §1, §2, §3, §4
(§6) To test if the amino acids substitution could impact the musk sensitivity, and specificity and to validate the Krautwurst's model, luciferase assays were performed as described previously after transfection of the chimeric OR5A2_variant 1. Cells were treated with semi-logarithmic serial dilutions of musk compounds from the four structurally different groups described earlier.
In each experiment, an empty vector was used as negative control (pEFIBRHO).

The target in a further experiment is T5, OR2A5 (Homo sapiens, UniProt Q96R48, A202S/A255T/I126V).
T5 construct: expressed in transfected cells; host or cells: HEK293T-RTP1A1/RTP2
T5 sequence (Q96R48 1-311 I126V/A202S/A255T): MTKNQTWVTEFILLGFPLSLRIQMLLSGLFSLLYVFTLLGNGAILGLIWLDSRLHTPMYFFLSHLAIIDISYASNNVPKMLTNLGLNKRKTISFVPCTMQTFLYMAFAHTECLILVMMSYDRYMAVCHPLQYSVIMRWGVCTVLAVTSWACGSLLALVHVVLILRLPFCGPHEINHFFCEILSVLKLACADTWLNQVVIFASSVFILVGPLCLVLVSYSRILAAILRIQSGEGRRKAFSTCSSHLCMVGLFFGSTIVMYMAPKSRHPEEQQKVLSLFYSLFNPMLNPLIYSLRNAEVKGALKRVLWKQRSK
The experiment can be described thus: Luciferase reporter concentration-response analysis on OR2A5. The conditions noted are these: CRE-luciferase. The protocol:
(§7) HEK293T-RTP1A1/RTP2 cells were maintained in minimal essential medium (EMEM, Lonza) containing 10% fetal bovine serum (M10). These cells were generated by transfecting HEK293T with an expression vector containing the sequences of the chaperone proteins RTP1A1 and RTP2 and a resistance gene to puromycin, using Lipofectamine 2000. The recombinant cell population, used in these experiments, was selected by adding 10 μg/ml of puromycin into the culture medium and subsequently subcloned (WO 2014/191047 A1).
as §2, §3, §4
In 1998, Krautwurst and collaborators have provided a model system for the study of ligand specificity and structure-function relationships for olfactory receptors (Krautwurst et al., 1998 Cell 95, 917-26). […] Based on their publication, a chimeric OR5A2_variant 1 olfactory receptor was created containing the TM2-TM7 amino acid sequence of OR5A2_variant 1 flanked by the N-teminal and C-terminal sequence of the olfactory receptor OR2A5 (cf. SEQ ID NO: 12). This chimeric OR5A2_variant 1 receptor shared 86 percent identity with the native OR5A2_variant 1 receptor (FIG. 6A and SEQ ID NO: 10).
as §6

Experiment [2] addresses T1, OR5A2_variant 1. The experiment can be described thus: Luciferase reporter deorphanisation screening of odorant libraries (891 compounds) on OR5A2. The following applies: HEK293T-RTP1A1/RTP2 cells; each compound at 1 mM, 316 μM, 100 μM; hit = luciferase activity >= median + 2 standard deviations. The protocol: as §1, §2
For screening experiments, stock solutions of odorant molecules were diluted in EMEM disposed in 96-well plates.
as §4

In a further experiment the target is T6, OR5AN1 (Homo sapiens, UniProt Q8NGI8, E89G).
T6 construct: expressed in transfected cells; host or cells: HEK293T-RTP1A1/RTP2
T6 sequence (Q8NGI8 1-311 E89G): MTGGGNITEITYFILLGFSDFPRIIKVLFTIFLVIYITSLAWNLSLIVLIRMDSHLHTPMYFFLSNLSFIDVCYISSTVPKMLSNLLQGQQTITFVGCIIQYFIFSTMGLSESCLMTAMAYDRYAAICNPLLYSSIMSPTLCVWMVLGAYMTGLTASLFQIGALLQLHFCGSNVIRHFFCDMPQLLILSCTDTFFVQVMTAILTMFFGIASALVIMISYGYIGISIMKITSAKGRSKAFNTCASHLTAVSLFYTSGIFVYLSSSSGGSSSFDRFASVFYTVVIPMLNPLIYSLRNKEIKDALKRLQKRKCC
Briefly: Luciferase reporter concentration-response analysis on OR5AN1. The following applies: concentration-response analysis, luciferase reporter; values given as negative (log) numbers; Non Active = no activation after testing; read-out: calculated EC50, OR5AN1 (converted). The protocol: as §7, §2, §3, §4
In these analyses we also included ORs previously described as musk-specific receptors OR5AN1 (SEQ ID n° 7) (WO 2015/020158 A1, Shirasu et al. 2014 Neuron 81, 165-78, Sato-Akuhara N et al. 2016 J Neurosci. 36(16), 4482-91) and OR11A1 (SEQ ID n° 8) (WO 2016/201152 A1). […] Therefore, OR5A1 was included in the analyses. 35 musk compounds from the four structurally different chemical groups previously described were tested in concentration-response analyses (Table 2). In each experiment, an empty vector was used as negative control (pEFIBRHO). […] Full results including the calculated EC50 are given in Table 2; “non active” represent negative experiments, no activation after testing. […]

Setting [3] is: concentration-response analysis, luciferase reporter, values given as negative (log) numbers, read-out: calculated EC50, OR5A2 (converted).

Residue numbers refer to the chain shown, from its start. Where two headings read alike, the source gives them in different places.

`CC1C(C)(C)C2=C(C(=O)CCC2)C1(C)C` (centres unmarked) [Cashmeran]: the “activation of OR5A2 (OR5A2_variant 1), concentration-response” value on OR5A2_variant 1 [1] is given as “shows dose response curves”. Further, the concentration giving a half-maximal response (EC50) at OR5A2_variant 1 [1] (setting [3]) was 17.8 µM; on OR11A1, 21.4 µM. Further, the “activation of OR5A2_variant 2 (P172L), concentration-response” value (“activation of OR5A2_variant 2 (P172L)” below) at OR5A2_variant 2 is “not activated”. Besides, the “activation of chimeric OR5A2_variant 1, concentration-response” value at chimeric OR5A2_variant 1 is given as “shows dose response curves”. Further, the “activation of OR2A5, concentration-response” value (“activation of OR2A5” for short) on OR2A5 is on record as “but not the OR2A5”.
With `O=C1CCCCCCCCCCCC(=O)OCCO1` [Ethylene Brassylate], the “response of the OR of the invention (luciferase activity, hit) in library screening” value (“response of the OR of the invention” below) on OR5A2_variant 1 [2] is “respond specifically and exclusively”. Also, the concentration giving a half-maximal response (EC50) was 49 µM at OR5A2_variant 1 [1] (setting [3]) and 66.1 µM on OR5AN1.
Turning to `CC1COCc2cc3c(cc21)C(C)(C)C(C)C3(C)C` (centres unmarked) [Galaxolide®], the “activation of OR5A2 (OR5A2_variant 1), concentration-response” value on OR5A2_variant 1 [1] was “shows dose response curves”. The “activation of OR5A2_variant 2 (P172L)” value at OR5A2_variant 2 was “not activated”. Further, the “activation of chimeric OR5A2_variant 1, concentration-response” value at chimeric OR5A2_variant 1 is listed as “shows dose response curves”. In addition, on OR2A5, the “activation of OR2A5” value is on record as “but not the OR2A5”.
Consider `CC(OC(C)(C)COC(=O)C1CC1)C1CCCC(C)(C)C1` (centres unmarked) [Serenolide], for which the “response of the OR of the invention” value on OR5A2_variant 1 [2] was “respond specifically and exclusively”. Also, on OR5A2_variant 1 [1], the 50% effective concentration (EC50) was 21.9 µM and the “activation of OR5A2 (OR5A2_variant 1), concentration-response” value is given as “shows dose response curves”. For the same molecule, the “activation of OR5A2_variant 2 (P172L)” value on OR5A2_variant 2 is “not activated”. Moreover, the “activation of chimeric OR5A2_variant 1, concentration-response” value at chimeric OR5A2_variant 1 is listed as “shows dose response curves”. In addition, the “activation of OR2A5” value at OR2A5 is “but not the OR2A5”.
As for `C[C@H]1CC(C)(C)C2=C(C[C@@]3(C)O[C@H]3C2)C1(C)C` [malaxone], the “response of the OR of the invention” value on OR5A2_variant 1 [2] was “respond specifically and exclusively”.

Usually EC50 stands for the midpoint of the concentration-response curve.
